Measurements as given in ChEMBL document CHEMBL1201862, “PubChem BioAssay data set” (2004).
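Grown in 96-well plates, cells were treated for 48 hours with each compound at five concentrations. Insufficient inhibition: endpoint recorded as highest concentration tested. At the GI50, growth is halved.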 Activity calls are given as the source filed them. No stated cut-off is given here; in the data, active = GI50 up to about 1.1 µM and inactive = higher.

How the values were obtained:
Assay in all cases: inhibition of tumour cell growth, NCI panel, 48 h
CAKI-1 = tested on: CAKI-1
COLO 205 = tested on: COLO 205
HCT-116 = tested on: HCT-116
HOP-92 = tested on: HOP-92
HT-29 = tested on: HT-29
KM12 = tested on: KM12
LOX IMVI = tested on: LOX IMVI
NCI-H23 = tested on: NCI-H23
NCI-H522 = tested on: NCI-H522
OVCAR-4 = tested on: OVCAR-4
RPMI-8226 = tested on: RPMI-8226
SK-MEL-2 = tested on: SK-MEL-2
SK-OV-3 = tested on: SK-OV-3
SN12C = tested on: SN12C
SNB-78 = tested on: SNB-78
UACC-62 = tested on: UACC-62
UO-31 = tested on: UO-31
SR = tested on: SR
Hs-578T = tested on: Hs-578T
MDA-N = tested on: MDA-N

Row | SMILES | GI50 (CAKI-1) | GI50 (COLO 205) | GI50 (HCT-116) | GI50 (HOP-92) | GI50 (HT-29) | GI50 (KM12) | GI50 (LOX IMVI) | GI50 (NCI-H23) | GI50 (NCI-H522) | GI50 (OVCAR-4) | GI50 (RPMI-8226) | GI50 (SK-MEL-2) | GI50 (SK-OV-3) | GI50 (SN12C) | GI50 (SNB-78) | GI50 (UACC-62) | GI50 (UO-31) | GI50 (SR) | GI50 (Hs-578T) | GI50 (MDA-N)
1 | C#CC[N+](CCO)(CCO)CCCCCCCCCCCCCCCCCC | 5.87 µM (inactive) | 11.2 µM (inactive) | 8.41 µM (inactive) | 2 µM (inactive) | 4.59 µM (inactive) | 3.55 µM (inactive) | 4.81 µM (inactive) | 13.8 µM (inactive) | 6.85 µM (inactive) | 10.5 µM (inactive) | 3.27 µM (inactive) | 16.4 µM (inactive) | 17.6 µM (inactive) | 16.4 µM (inactive) | 6.53 µM (inactive) | 11 µM (inactive) | 15.1 µM (inactive) |  |  | 
2 | C=CCC1(CN(C)C)CC/C(=C\c2ccc(OC)cc2)C1=O (stereo unspecified) |  | 46.7 µM (inactive) | 61.5 µM (inactive) | 83.6 µM (inactive) | 36.6 µM (inactive) | 74.3 µM (inactive) | > 100 µM (inactive) | 81.7 µM (inactive) | 25.8 µM (inactive) | 88.7 µM (inactive) | 23.9 µM (inactive) | > 100 µM (inactive) |  | > 100 µM (inactive) | > 100 µM (inactive) | > 100 µM (inactive) | 89.9 µM (inactive) |  |  | 
3 | CC#COS(=O)(=O)c1ccc(C)cc1 | > 100 µM (inactive) | 39.9 µM (inactive) | 37.5 µM (inactive) |  | 45.9 µM (inactive) | 59.2 µM (inactive) | 52 µM (inactive) | 65.6 µM (inactive) | 49.5 µM (inactive) | 58.5 µM (inactive) | 23.1 µM (inactive) | > 100 µM (inactive) | 84.3 µM (inactive) | > 100 µM (inactive) | 63.5 µM (inactive) | 32.4 µM (inactive) | 57.1 µM (inactive) | 33.7 µM (inactive) |  | 
4 | CC(=O)OCC1OC(n2c(=S)n(-c3ccccc3)c(=O)c3cc(Br)ccc32)C(OC(C)=O)C1OC(C)=O (stereo unspecified) | 11.6 µM (inactive) | > 100 µM (inactive) | > 100 µM (inactive) | > 100 µM (inactive) | > 100 µM (inactive) | > 100 µM (inactive) | > 100 µM (inactive) | > 100 µM (inactive) | > 100 µM (inactive) | > 100 µM (inactive) | 51.3 µM (inactive) | > 100 µM (inactive) | > 100 µM (inactive) | > 100 µM (inactive) | > 100 µM (inactive) | > 100 µM (inactive) | > 100 µM (inactive) |  |  | 
5 | COc1cc2ccc(/C(C)=N/OC(C)=O)cc2cc1OC |  | > 100 µM (inactive) | > 100 µM (inactive) | 51.3 µM (inactive) | 64.3 µM (inactive) | > 100 µM (inactive) | > 100 µM (inactive) | > 100 µM (inactive) | 22.4 µM (inactive) | > 100 µM (inactive) | 84.7 µM (inactive) | 81.3 µM (inactive) | > 100 µM (inactive) | 49.5 µM (inactive) | 92.9 µM (inactive) | 20.8 µM (inactive) | 34.7 µM (inactive) |  |  | 
6 | CCOc1ccc2nc(NC(=O)C(=O)C(C(=O)c3ccccc3F)C3OC(=O)c4ccccc43)sc2c1 (stereo unspecified) | 31.8 µM (inactive) | 15.6 µM (inactive) | 17.6 µM (inactive) |  |  | 0.723 µM (active) |  |  | 14 µM (inactive) | 19.2 µM (inactive) | 19.1 µM (inactive) | 19.6 µM (inactive) | 24.1 µM (inactive) | 16.4 µM (inactive) | 17.5 µM (inactive) | 14.6 µM (inactive) | 18.4 µM (inactive) | 11.7 µM (inactive) |  | 
7 | CC(=O)NC1C(O)C(O)C(CO)OC1n1nc(SCc2ccccc2)c(=O)[nH]c1=O (stereo unspecified) | > 100 µM (inactive) | > 100 µM (inactive) | > 100 µM (inactive) | > 100 µM (inactive) | > 100 µM (inactive) | > 100 µM (inactive) | > 100 µM (inactive) | > 100 µM (inactive) | > 100 µM (inactive) | > 100 µM (inactive) | > 100 µM (inactive) | > 100 µM (inactive) | > 100 µM (inactive) | > 100 µM (inactive) |  | > 100 µM (inactive) | > 100 µM (inactive) | > 100 µM (inactive) | > 100 µM (inactive) | > 100 µM (inactive)
8 | CC1=C2CC[C@@]3(C)C(=CCC3O)C2(C)CCC1=O (stereo partly specified) | > 100 µM (inactive) | > 100 µM (inactive) | > 100 µM (inactive) | > 100 µM (inactive) | > 100 µM (inactive) | > 100 µM (inactive) | > 100 µM (inactive) |  | > 100 µM (inactive) | > 100 µM (inactive) | > 100 µM (inactive) |  | > 100 µM (inactive) | > 100 µM (inactive) | > 100 µM (inactive) | 56.4 µM (inactive) | > 100 µM (inactive) | > 100 µM (inactive) |  | 
